We go through one molecule from ChEMBL document CHEMBL2021885, “Triphenylbutanamines: kinesin spindle protein inhibitors with in vivo antitumor activity” (J Med Chem, 2012).

The assay deals with T1, Kinesin-like protein KIF20A (Homo sapiens) (UniProt O95235).
T1 sequence (whole entry): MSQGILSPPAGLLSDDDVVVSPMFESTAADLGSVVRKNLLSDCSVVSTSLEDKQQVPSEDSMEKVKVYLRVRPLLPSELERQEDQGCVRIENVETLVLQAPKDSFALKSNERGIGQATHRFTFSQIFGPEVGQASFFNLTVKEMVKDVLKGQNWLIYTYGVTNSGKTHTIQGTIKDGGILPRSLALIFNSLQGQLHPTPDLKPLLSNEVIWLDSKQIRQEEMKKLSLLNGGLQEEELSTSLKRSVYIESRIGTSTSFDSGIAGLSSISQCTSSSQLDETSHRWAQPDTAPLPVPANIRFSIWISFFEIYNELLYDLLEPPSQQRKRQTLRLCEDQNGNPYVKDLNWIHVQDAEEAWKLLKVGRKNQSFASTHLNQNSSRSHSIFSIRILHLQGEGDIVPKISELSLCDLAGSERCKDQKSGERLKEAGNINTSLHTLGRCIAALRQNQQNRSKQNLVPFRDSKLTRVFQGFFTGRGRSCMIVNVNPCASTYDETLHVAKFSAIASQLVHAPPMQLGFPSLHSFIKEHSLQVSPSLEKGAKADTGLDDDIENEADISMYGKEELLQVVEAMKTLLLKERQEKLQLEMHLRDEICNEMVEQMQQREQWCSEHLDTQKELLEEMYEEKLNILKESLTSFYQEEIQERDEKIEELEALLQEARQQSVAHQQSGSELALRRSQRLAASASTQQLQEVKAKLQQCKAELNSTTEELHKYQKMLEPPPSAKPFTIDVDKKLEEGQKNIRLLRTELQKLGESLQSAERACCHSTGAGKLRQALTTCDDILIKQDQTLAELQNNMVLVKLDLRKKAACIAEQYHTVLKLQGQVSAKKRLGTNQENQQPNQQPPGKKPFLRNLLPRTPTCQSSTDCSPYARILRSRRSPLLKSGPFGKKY
The experiment in a line: Inhibition of MT-stimulated MKLP2 ATPase activity.

Activity calls are given as the source filed them. No cut-off for these calls is given here.

Take `Cc1cccc(C(CCC(N)C(=O)O)(c2ccccc2)c2ccccc2)c1` (racemic): the inhibition entry was “inactive”.
